Laboratory results: patent US7855292B2, “Sulfonamide compounds” (Janssen Pharmaceutica NV, priority 2004, dated 2010)

Experiments:
CCK-1 receptor = target: T1, CCK-1 receptor (Homo sapiens, UniProt P32238); assay: CCK1 binding assay ([125I]-BH-CCK-8S displacement, CHO-K1 membranes); settings: membranes of CHO-K1 cells stably transfected with the CCK-1 receptor; 20 pM [125I]-BH-CCK-8S; 0.3 μM PD-134,308 present; 60 min at 21±3° C.; read-out: CCK1 pKi (converted)
T1 construct: expressed in transfected cells; host or cells: CHO-K1
T1 sequence (P32238 1-428): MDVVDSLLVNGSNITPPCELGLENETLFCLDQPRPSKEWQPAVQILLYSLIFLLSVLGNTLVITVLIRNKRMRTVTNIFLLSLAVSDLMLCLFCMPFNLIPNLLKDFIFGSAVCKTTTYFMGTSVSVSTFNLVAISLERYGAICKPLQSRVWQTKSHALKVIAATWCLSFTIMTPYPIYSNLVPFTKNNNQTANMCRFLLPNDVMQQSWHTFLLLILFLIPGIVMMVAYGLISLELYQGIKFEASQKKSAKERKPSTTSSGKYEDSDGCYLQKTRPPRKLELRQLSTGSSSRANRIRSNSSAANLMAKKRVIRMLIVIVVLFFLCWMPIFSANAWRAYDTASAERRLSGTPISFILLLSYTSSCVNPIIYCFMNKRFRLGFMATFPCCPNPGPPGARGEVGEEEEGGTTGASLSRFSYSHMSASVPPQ
How it was run: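 Membranes from CHO-K1 cells stably expressing CCK-1 incubated 1 h at 21±3° C with 20 pM [125I]-BH-CCK-8S in HEPES buffer pH 7.2 containing 0.3 μM PD-134,308 to block CCK-2. Bound radioactivity read by gamma counting after filtration. pKi derived via Cheng-Prusoff, with specific binding defined using 2-NAP.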

CCK2 receptor = target: T2, CCK2 receptor (Homo sapiens, UniProt P32239); assay: CCK2 binding assay ([125I]-BH-CCK-8S displacement, HEKZFP membranes); settings: membranes of doxycycline-induced HEKZFP cells; 20 pM [125I]-BH-CCK-8S; 60 min at 21±3° C.; read-out: CCK2 pKi (converted)
T2 construct: analyzed for ZFP expression as well as CCK2R induction upon addition of doxycycline to the culture medium; endogenous in cells
T2 sequence (P32239 1-447): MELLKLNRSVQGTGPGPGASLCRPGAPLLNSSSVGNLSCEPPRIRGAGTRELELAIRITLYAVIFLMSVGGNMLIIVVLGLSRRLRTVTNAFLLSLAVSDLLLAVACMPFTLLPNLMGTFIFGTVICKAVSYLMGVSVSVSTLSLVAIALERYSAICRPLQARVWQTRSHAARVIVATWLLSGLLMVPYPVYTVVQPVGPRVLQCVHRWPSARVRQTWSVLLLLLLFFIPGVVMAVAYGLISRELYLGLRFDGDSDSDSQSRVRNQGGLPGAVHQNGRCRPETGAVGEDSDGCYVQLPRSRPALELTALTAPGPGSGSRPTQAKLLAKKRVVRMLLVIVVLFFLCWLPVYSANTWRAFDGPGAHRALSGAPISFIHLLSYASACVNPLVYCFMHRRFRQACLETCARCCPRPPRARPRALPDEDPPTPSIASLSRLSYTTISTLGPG

| Compound | Ki (CCK-1 receptor) [µM] | Ki (CCK2 receptor) [µM] |
| --- | --- | --- |
| O=C(N[C@@H](Cc1ccc(Cl)c(Cl)c1)C(=O)NCc1ccccc1)c1ccc(Cl)cc1NS(=O)(=O)c1cccc2nsnc12 [Example 129, (S)-2-(Benzo[1,2,5]thiadiazole-4-sulfonylamino)-N-[1-benzylcarbamoyl-2-(3,4-dichloro-phenyl)-ethyl]-4-chloro-benzamide] | 0.1 | 0.631 |
| O=C(N[C@@H](Cc1ccc(Cl)c(Cl)c1)C(=O)NCc1ccc(F)cc1)c1ccc(Cl)cc1NS(=O)(=O)c1cccc2nsnc12 [Example 130, (S)-2-(Benzo[1,2,5]thiadiazole-4-sulfonylamino)-4-chloro-N-[2-(3,4-dichloro-phenyl)-(4-fluoro-benzylcarbamoyl)-ethyl]-benzamide] | 0.398 | 0.316 |
| O=C(N[C@@H](Cc1ccc(Cl)c(Cl)c1)C(=O)O)c1ccc(Br)cc1NS(=O)(=O)c1cccc2nsnc12 [Example 131, (S)-2-[2-(Benzo[1,2,5]thiadiazole-4-sulfonylamino)-4-bromo-benzoylamino]-3-(3,4-dichloro-phenyl)-propionic acid] | 0.158 | 0.0158 |
| O=C(N[C@@H](Cc1ccc(Cl)c(Cl)c1)C(=O)O)c1ccc(I)cc1NS(=O)(=O)c1cccc2nccnc12 [Example 132, (S)-3-(3,4-Dichloro-phenyl)-2-[4-iodo-2-(quinoxaline-5-sulfonylamino)-benzoylamino]-propionic acid] | 0.251 | 0.0158 |
| O=C(N[C@@H](Cc1ccc(Cl)cc1Cl)C(=O)O)c1ccc(I)cc1NS(=O)(=O)c1cccc2nsnc12 [Example 133, (S)-2-[2-(Benzo[1,2,5]thiadiazole-4-sulfonylamino)-4-iodo-benzoylamino]-3-(2,4-dichloro-phenyl)-propionic acid] | 0.398 | 0.0316 |
| O=C(N[C@@H](Cc1cc(F)c(Cl)cc1Cl)C(=O)O)c1ccc(I)cc1NS(=O)(=O)c1cccc2nsnc12 [Example 134, (S)-2-[2-(Benzo[1,2,5]thiadiazole-4-sulfonylamino)-4-iodo-benzoylamino]-3-(2,4-dichloro-5-fluoro-phenyl)-propionic acid] | 0.501 | 0.02 |
| O=C(N[C@@H](Cc1cccc(I)c1)C(=O)O)c1ccc(I)cc1NS(=O)(=O)c1cccc2nsnc12 [Example 135, (S)-2-[2-(Benzo[1,2,5]thiadiazole-4-sulfonylamino)-4-iodo-benzoylamino]-3-(3-iodo-phenyl)-propionic acid] | 0.501 | 0.00794 |
| COC(=O)[C@H](Cc1ccc(Cl)c(I)c1)NC(=O)c1ccc(I)cc1NS(=O)(=O)c1cccc2nsnc12 [Example 136, (S)-2-[2-(Benzo[1,2,5]thiadiazole-4-sulfonylamino)-4-iodo-benzoylamino]-3-(4-chloro-3-iodo-phenyl)-propionic acid methyl ester] | 0.0398 | 0.316 |
| COC(=O)[C@H](Cc1ccc(Cl)c(I)c1)NC(=O)c1ccc(I)cc1NS(=O)(=O)c1cccc2nccnc12 [Example 137, (S)-3-(4-Chloro-3-iodo-phenyl)-2-[4-iodo-2-(quinoxaline-5-sulfonylamino)-benzoylamino]-propionic acid methyl ester] | 0.0794 | 0.2 |
| O=C(N[C@@H](Cc1ccc(Cl)c(I)c1)C(=O)O)c1ccc(I)cc1NS(=O)(=O)c1cccc2nccnc12 [Example 138, (S)-3-(4-Chloro-3-iodo-phenyl)-2-[4-iodo-2-(quinoxaline-5-sulfonylamino)-benzoylamino]-propionic acid] | 0.1 | 0.0501 |
| O=C(N[C@@H](Cc1ccc(Cl)c(Cl)c1)C(=O)Nc1ccccc1)c1ccc(Cl)cc1NS(=O)(=O)c1cccc2nsnc12 [Example 139, (S)-2-(Benzo[1,2,5]thiadiazole-4-sulfonylamino)-4-chloro-N-[2-(3,4-dichloro-phenyl)-phenylcarbamoyl-ethyl]-benzamide] | 0.0794 | 0.631 |
